Target: T1, 17-beta-hydroxysteroid dehydrogenase 13 (Homo sapiens, UniProt Q7Z5P4)
T1 sequence (Q7Z5P4 whole entry): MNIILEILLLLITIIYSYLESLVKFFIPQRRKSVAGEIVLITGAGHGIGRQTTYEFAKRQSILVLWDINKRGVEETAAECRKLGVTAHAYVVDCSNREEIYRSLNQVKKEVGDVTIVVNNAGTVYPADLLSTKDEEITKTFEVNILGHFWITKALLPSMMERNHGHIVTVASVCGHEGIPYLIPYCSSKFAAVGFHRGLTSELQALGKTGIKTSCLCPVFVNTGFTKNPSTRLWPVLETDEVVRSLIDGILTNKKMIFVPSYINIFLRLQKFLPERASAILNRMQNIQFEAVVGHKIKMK
Assay: In Vitro 17bHSD13 Enzyme Assay
Protocol: Final assay conditions were 80 nM of 17bHSD13, 0.5 mM of NAD, 20 μM Estradiol and various concentrations of compound in buffer (5 mM EDTA (TEKNOVA E0306), 0.01% DDM (AFFYMETRIX D310) in 50 mM Tris-Cl, pH 7.4). After 2.5 h the reaction were stopped by addition of 20 μl of 0.6% Formic acid (MERCK 5.33002) and samples were analyzed using LC-MS/MS.SCIEX LC-MS/MS system: Sample was injected with CTC analytical injector, SHIMATZU LC pumps LC20 and analyzed on the SCIEX API 5000 LCMSMS system with the following settings. Samples were chromatographed on a WATERS, […], C8, 3.5 μm, 2.1×50 mm) column at constant flow rate of 0.5 mL/min. The mobile phases consist of A (water with 0.2% formic acid) and B (acetonitrile with 0.2% formic acid). The LC gradient profile is as follows: 50% B during 0 to 0.5 min, a linear increase to 100% B during 0.5 to 1 min, hold at 100% B during 1 to 1.6 min then back to 50% B from 1.6 to 2 min. The run time was 2 min with retention times of approximately 0.8 and 1.07 min for Estradiol and Estrone, respectively. Detection was performed on a API 5000 LC/MS/MS system with a triple quadrupole mass spectrometer, a TURBO V ion source, in multiple reaction monitoring (MRM) mode at positive polarity with APCI probe. The MRM pairs were m/z 273.1 to m/z 107.0 and m/z 271.3 to 107.0. for Estradiol and Estrone, respectively.

CN(C(=O)c1noc(-c2cc(F)c(F)c(O)c2F)n1)c1cccc(C#N)c1 [US20250011311, Example 63]
IC50: 151 nM

From BindingDB's records for patent US20250011311 (Astrazeneca, 2025)
